Assay: recombinant barcode read abundance after kanamycin selection (control-corrected) (log10(CPM+1)); higher = more efficient recombination; sequences stand for … in AGTGCAGAGAAAATCGGCCAGTTTTCTCTGCCTGCAGTCCGCATGCCGT…AGATTTATGCAGCGGACTGCCTTTCTCCCAAAGTGATAAACCGGACAGTATCATGGACCGGTTTTCCCGGTAATCCGTATTTGCAAGGTTGGTTTCACT; site = the 11-nt target
Summary of the method: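 Recombination efficiency was calculated from barcode counts at recombinant junctions, normalized to counts per million, averaged and corrected by the control. Each value is given as log10(CPM+1). The constructs were Gibson-cloned oligos (promoter, target, barcode, J23119-driven first 104 bridge RNA bases) in a vector with the remaining 73 bp and a T7-inducible recombinase, co-electroporated into E. coli with a donor plasmid and plated in duplicate on chloramphenicol/ampicillin LB agar (control) or chloramphenicol/ampicillin/kanamycin with 0.1 mM IPTG.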
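Note: IS621 recombinase and bridge RNA in Escherichia coli cells.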

| Sequence | recombinant barcode read abundance (log10) |
| --- | --- |
| CTTGGACCTTGGGTTCTAACCTGTTGCCT (site CTTGGAGCTAG) | 0.0408 |
| CTTGGACCTTGGGTTCTAACCTGTTGCCT (site CTTGGATCTAG) | 0.113 |
| CTTGGTTCTTGGGTTCTAACCTGTTGCCT (site CTTGGGTCTAG) | 0.108 |
| CTTGGTTCTTGGGTTCTAACCTGTTGCCT (site CTTGGTTCTAG) | 0.33 |
| CTTTAAGCTTGGGTTCTAACCTGTTGCTA (site ACCGTTCCTAG) | 0.0964 |
| CTTTAAGCTTGGGTTCTAACCTGTTGCTA (site CTTTAAGCTTA) | 0.195 |
| CTTTAATCTTGGGTTCTAACCTGTTGCCT (site CTTAAATCTAG) | 0.349 |
| CTTTAATCTTGGGTTCTAACCTGTTGCCT (site CTTCAATCTAG) | 0.158 |
| CTTTAATCTTGGGTTCTAACCTGTTGCCT (site CTTGAATCTAG) | 0.0679 |
| CTTTAATCTTGGGTTCTAACCTGTTGCCT (site CTTTAATCTAG) | 0.165 |
| CTTTAGACTTGGGTTCTAACCTGTTGCAT (site CTCTAGACTAC) | 0.0162 |
| CTTTAGACTTGGGTTCTAACCTGTTGCAT (site CTTTAGACTAT) | 0.926 |
| CTTTCCTCTTGGGTTCTAACCTGTTGCCT (site CATTCCTCTAG) | 0.153 |
| CTTTCCTCTTGGGTTCTAACCTGTTGCCT (site CCTTCCTCTAG) | 0.0332 |
| CTTTCCTCTTGGGTTCTAACCTGTTGCCT (site CGTTCCTCTAG) | 0.0618 |
| CTTTCCTCTTGGGTTCTAACCTGTTGCCT (site CTTTCCTCTAG) | 0.831 |
| CTTTCCTCTTGGGTTCTAACCTGTTGCTT (site CATTACTCTAA) | 0.2 |
| CTTTCCTCTTGGGTTCTAACCTGTTGCTT (site CTTTCCTCTAA) | 0.92 |
| CTTTCGTCTTGGGTTCTAACCTGTTGCCT (site CTTTCACCTAG) | 0.0235 |
| CTTTCGTCTTGGGTTCTAACCTGTTGCCT (site CTTTCGTCTAG) | 0.0335 |
| CTTTGAGCTTGGGTTCTAACCTGTTGCAT (site CTTCGGGCTAT) | 0.0604 |
| CTTTGAGCTTGGGTTCTAACCTGTTGCAT (site CTTTGAGCTAT) | 0.632 |

| Sequence | recombinant barcode read abundance (log10) |
| --- | --- |
| CTTTGATCTTGGGTTCTAACCTGTTGCGT (site CATCGATCTAC) | 0.0142 |
| CTTTGATCTTGGGTTCTAACCTGTTGCGT (site CTTTGATCTAC) | 1.29 |
| GAAACAGCTTGGGTTCTAACCTGTTGCCT (site GAAACAGCTAG) | 0.725 |
| GAAACAGCTTGGGTTCTAACCTGTTGCCT (site GACACAGCTAG) | 0.0141 |
| GAAACAGCTTGGGTTCTAACCTGTTGCCT (site GAGACAGCTAG) | 0.281 |
| GAAACAGCTTGGGTTCTAACCTGTTGCCT (site GATACAGCTAG) | 0.158 |
| GAAAGTCCTTGGGTTCTAACCTGTTGCCT (site GAAAATCCTAG) | 0.0602 |
| GAAAGTCCTTGGGTTCTAACCTGTTGCCT (site GAAACTCCTAG) | 0.0877 |
| GAAAGTCCTTGGGTTCTAACCTGTTGCCT (site GAAAGTCCTAG) | 0.917 |
| GAAAGTCCTTGGGTTCTAACCTGTTGCCT (site GAAATTCCTAG) | 0.0822 |
| GAAATACCTTGGGTTCTAACCTGTTGCGG (site AGCTATGCTAG) | 0.131 |
| GAAATACCTTGGGTTCTAACCTGTTGCGG (site GAAATACCTCC) | 1.41 |
| GAACAGCCTTGGGTTCTAACCTGTTGCGT (site ATTGCTACTTG) | 0.278 |
| GAACAGCCTTGGGTTCTAACCTGTTGCGT (site GAACAGCCTAC) | 0.943 |
| GAACCACCTTGGGTTCTAACCTGTTGCCT (site GAACCACCTAG) | 1.75 |
| GAACCACCTTGGGTTCTAACCTGTTGCCT (site TCACCACCTAG) | 0.133 |
| GAACCTACTTGGGTTCTAACCTGTTGCCG (site GAACCTACTCG) | 0.583 |
| GAACCTACTTGGGTTCTAACCTGTTGCCG (site GAGCCTACTAG) | 0.172 |
| GAACCTACTTGGGTTCTAACCTGTTGCGA (site GAACCTACTCC) | 0.0825 |
| GAACCTACTTGGGTTCTAACCTGTTGCGA (site GAACCTACTTC) | 1.87 |
| GAACCTCCTTGGGTTCTAACCTGTTGCAT (site GAACCTCCTAT) | 1.94 |
| GAACCTCCTTGGGTTCTAACCTGTTGCAT (site TGCGTAACTTG) | 0.0548 |

| Sequence | recombinant barcode read abundance (log10) |
| --- | --- |
| GAACGACCTTGGGTTCTAACCTGTTGCTG (site GAACGACCTAA) | 0.0602 |
| GAACGACCTTGGGTTCTAACCTGTTGCTG (site GAACGACCTCA) | 1.16 |
| GAACGATCTTGGGTTCTAACCTGTTGCCT (site GAACCTTCTAG) | 0.148 |
| GAACGATCTTGGGTTCTAACCTGTTGCCT (site GAACGATCTAG) | 0.397 |
| GAACGCTCTTGGGTTCTAACCTGTTGCCA (site AGGTCTACTAA) | 0.0972 |
| GAACGCTCTTGGGTTCTAACCTGTTGCCA (site GAACGCTCTTG) | 0.265 |
| GAACTTGCTTGGGTTCTAACCTGTTGCCT (site GAACTTGCTAG) | 1.24 |
| GAACTTGCTTGGGTTCTAACCTGTTGCCT (site GCCCTTGCTAG) | 0.176 |
| GAAGAGACTTGGGTTCTAACCTGTTGCCT (site GAAAACACTAG) | 0.0941 |
| GAAGAGACTTGGGTTCTAACCTGTTGCCT (site GAAGAGACTAG) | 1.57 |
| GAAGCATCTTGGGTTCTAACCTGTTGCCT (site GAAGCATCTAG) | 1.54 |
| GAAGCATCTTGGGTTCTAACCTGTTGCCT (site GATGCCTCTAG) | 0.123 |
| GAAGGGCCTTGGGTTCTAACCTGTTGCCT (site GAAGAGCCTAG) | 0.202 |
| GAAGGGCCTTGGGTTCTAACCTGTTGCCT (site GAAGCGCCTAG) | 0.225 |
| GAAGGGCCTTGGGTTCTAACCTGTTGCCT (site GAAGGGCCTAG) | 0.723 |
| GAAGGGCCTTGGGTTCTAACCTGTTGCCT (site GAAGTGCCTAG) | 0.0531 |
| GAAGTACCTTGGGTTCTAACCTGTTGCCT (site AAAGTACCTAG) | 0.881 |
| GAAGTACCTTGGGTTCTAACCTGTTGCCT (site CAAGTACCTAG) | 0.275 |
| GAAGTACCTTGGGTTCTAACCTGTTGCCT (site GAAGTACCTAG) | 1.92 |
| GAAGTACCTTGGGTTCTAACCTGTTGCCT (site TAAGTACCTAG) | 0.873 |
| GAAGTCACTTGGGTTCTAACCTGTTGCCT (site GAAGTCACTAG) | 1.99 |
| GAAGTCACTTGGGTTCTAACCTGTTGCCT (site TAAGTCACTAG) | 1.6 |

| Sequence | recombinant barcode read abundance (log10) |
| --- | --- |
| GAAGTCTCTTGGGTTCTAACCTGTTGCCT (site GAAGTCTCTAG) | 2.59 |
| GAAGTCTCTTGGGTTCTAACCTGTTGCCT (site GTAGTCCCTAG) | 0.0661 |
| GAATCGACTTGGGTTCTAACCTGTTGCCT (site AGGGTACCTCT) | 0.192 |
| GAATCGACTTGGGTTCTAACCTGTTGCCT (site GAATCGACTAG) | 0.421 |
| GAATCTTCTTGGGTTCTAACCTGTTGCTT (site CAATCGTCTAA) | 0.0978 |
| GAATCTTCTTGGGTTCTAACCTGTTGCTT (site GAATCTTCTAA) | 0.0983 |
| GACAAACCTTGGGTTCTAACCTGTTGCGG (site GACAAACCTCC) | 1.64 |
| GACAAACCTTGGGTTCTAACCTGTTGCGG (site GACACAACTCC) | 0.0381 |
| GACACAACTTGGGTTCTAACCTGTTGCGG (site GACAAACCTCC) | 0.0119 |
| GACACAACTTGGGTTCTAACCTGTTGCGG (site GACACAACTCC) | 1.14 |
| GACACACCTTGGGTTCTAACCTGTTGCAT (site GACACACCTAT) | 1.02 |
| GACACACCTTGGGTTCTAACCTGTTGCAT (site GTCACGCCTAT) | 0.0207 |
| GACACCTCTTGGGTTCTAACCTGTTGCCG (site GACACCTCTCG) | 1.12 |
| GACACCTCTTGGGTTCTAACCTGTTGCCG (site TCTGAAACTAA) | 0.157 |
| GACACCTCTTGGGTTCTAACCTGTTGCTT (site GACACCTCTAA) | 1.03 |
| GACACCTCTTGGGTTCTAACCTGTTGCTT (site GACACGTCTAG) | 0.461 |
| GACACGCCTTGGGTTCTAACCTGTTGCTT (site GACACGCCTAA) | 0.201 |
| GACACGCCTTGGGTTCTAACCTGTTGCTT (site GACACGCCTAC) | 0.0239 |
| GACACGCCTTGGGTTCTAACCTGTTGCTT (site GACACGCCTAG) | 0.0922 |
| GACACGCCTTGGGTTCTAACCTGTTGCTT (site GACACGCCTAT) | 0.0718 |

Reference: the supplement of paper PMC11208160
